Experimental data taken from patent US11013780B2, “Methods of treating female infertility” (Myovant Sciences GmbH, priority 2016, dated 2021).
Values joined by “and” are separate entries in the source; they are usually repeats but may differ in a detail not shown here. Equal entries are not always repeated. Where two headings read alike, the source gives them in different places. Where a SMILES comes first, the peptide text is derived from it. [ ]: non-standard residue; d: D form. Arg(Me) = CNC(=N)NCCC[C@H](N)C(=O)O; Hyp = O=C(O)[C@@H]1C[C@@H](O)CN1; azaGly = NNC(=O)O

Key:
[1] = In vitro distribution into blood cells, dogs; assay type: in vitro ADME
Experimental: The in vitro distribution ratios of [^14C]API-MA into the blood cells at the concentrations of 0.01, 0.1, 1, and 10 μg/mL API-FB (free form) were 7.8%, 8.0%, 7.1%, and 4.8% for rats, 2.4%, 2.0%, 1.6%, and 1.2% for dogs, and 2.0%, 0.0%, 0.0%, and 0.5% for humans, respectively. […] The in vitro plasma protein binding ratios of [^14C]API-FB in rats, dogs, monkeys, and humans were determined by the ultracentrifugation method. In addition, the protein binding to human serum albumin (HSA), α1-acid glycoprotein (AGP), and HSA/AGP was investigated. […] In rats and dogs, a slight decrease in the binding ratio at the concentration range between 0.1 and 1.0 μg/mL API-FB was observed. In monkeys and humans, the binding was independent of the drug concentrations from 0.01 to 10 μg/mL API-FB.

CYP3A4 = CYP3A4 (Homo sapiens, UniProt P08684); experiment: Inhibition of recombinant CYP3A4; assay type: in vitro ADME
[2] = Single dose PK, phase 1, healthy Japanese men; assay type: in vivo, human; details: for AUC(0-inf) / CL/F / Cmax / half-life / Tmax / dose excreted: male, human; for AUC(0-inf) / CL/F / Cmax / half-life / Tmax: plasma; for dose excreted: urine
Experimental: Thirty-seven healthy Japanese male subjects aged 50 to 74 years were enrolled into nine cohorts. Subjects enrolled in the first […] cohorts received 0.001, 0.004, 0.01, 0.04, 0.1, 0.25 or 0.5 mg of API-MA or placebo by single SC bolus. In the 0.001 mg cohort, 3 subjects received API-MA and two received placebo. In the remaining cohorts, 3 subjects received API-MA and one received placebo. Subjects enrolled in the eighth and ninth cohorts received 0.25 or 0.5 mg of API-MA or placebo by single 2-hour SC infusion. In both cohorts, 3 subjects received API-MA and one received placebo. The plasma PK analysis set consisted of 31 subjects (bolus cohorts: 25; infusion cohorts: 6), and the urine PK analysis set consisted of 35 subjects (bolus cohorts: 27; infusion cohorts: 8).
To measure urinary excretion of API-MA, urine specimens were collected at the following nominal times: predose, 0 to 4, 4 to 8, 8 to 12, 12 to 24, 24 to 36, 36 to 48 and 48 to 72 hours postdose.

[3] = 1-month depot PK, prostate cancer patients; assay type: in vivo, human; details: for AUC(0-t) / Cmax / Tmax: male, human, plasma; for AUC(0-t): sc; for AUC(0-t) / Cmax / Tmax / Tlqc: prostate cancer patients; for AUC(0-t) / Cmax / Tlqc: geometric mean; for Tmax: read-out: Tmax (median)
Experimental: Another study enrolled prostate cancer patients who had completed their primary treatment for prostate cancer at least 6 months prior to screening and were either on GnRH therapy or were potential future candidates for GnRH therapy. Nine patients were enrolled, three in each dose group (6, 12, and 24 mg). All were white men. Patients received API-MA as a single 1-month depot SC injection into the abdomen that was intended to initiate both a high-burst release of API-MA and rapid stimulation of hypothalamic-pituitary-gonadal-axis, and was expected to suppress testosterone. Overall, 4 of 9 patients received concomitant GnRH therapy.

serum LH and PSA = experiment: 1-month depot pharmacodynamics, prostate cancer patients; assay type: in vivo, human
Experimental: Nine patients with prostate cancer were enrolled in another study, three in each dose group (6, 12, and 24 mg). Patients received API-MA as a single 1-month depot injection that was intended to initiate both a high-burst release of API-MA and rapid stimulation of hypothalamic-pituitary-gonadal axis. Overall, 4 of 9 patients received concomitant GnRH therapy. Assessments of pharmacodynamics included LH concentrations and serum PSA concentrations. Results were grouped based on patients who were or were not receiving concomitant GnRH therapy.

[4] = sc, 0.001 mg, single SC bolus 0.001 mg, mean
[5] = sc, 0.004 mg, single SC bolus 0.004 mg, mean
[6] = sc, 0.01 mg, single SC bolus 0.01 mg, mean
[7] = sc, 0.04 mg, single SC bolus 0.04 mg, mean
[8] = sc, 0.1 mg, single SC bolus 0.1 mg, mean
[9] = sc, 0.25 mg, single 2-hour SC INF 0.25 mg (plasma N = 1)
[10] = sc, 0.25 mg, single SC bolus 0.25 mg, mean
[11] = sc, 0.5 mg, single 2-hour SC INF 0.5 mg, mean
[12] = sc, 0.5 mg, single SC bolus 0.5 mg, mean

Chain of CYP3A4 (P08684 whole entry): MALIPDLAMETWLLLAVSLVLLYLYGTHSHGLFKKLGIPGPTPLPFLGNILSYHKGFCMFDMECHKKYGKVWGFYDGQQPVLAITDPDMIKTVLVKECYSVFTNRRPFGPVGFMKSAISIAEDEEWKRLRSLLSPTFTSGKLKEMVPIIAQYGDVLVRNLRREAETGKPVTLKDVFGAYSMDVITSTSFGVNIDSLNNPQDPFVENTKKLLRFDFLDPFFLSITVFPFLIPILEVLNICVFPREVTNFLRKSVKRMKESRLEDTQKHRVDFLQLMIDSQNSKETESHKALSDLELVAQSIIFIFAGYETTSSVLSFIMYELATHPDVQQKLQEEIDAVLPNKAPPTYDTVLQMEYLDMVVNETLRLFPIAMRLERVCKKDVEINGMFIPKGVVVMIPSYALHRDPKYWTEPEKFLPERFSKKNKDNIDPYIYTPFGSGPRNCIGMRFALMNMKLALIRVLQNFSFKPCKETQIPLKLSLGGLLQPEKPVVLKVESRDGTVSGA

CC(=O)O.CNC(=N)NCCC[C@H](NC(=O)[C@H](CC(C)C)NC(=O)NNC(=O)[C@H](Cc1ccccc1)NC(=O)[C@@H](NC(=O)[C@H](CC(N)=O)NC(=O)[C@@H]1C[C@@H](O)CN1C(=O)[C@@H](Cc1ccc(O)cc1)NC(C)=O)[C@@H](C)O)C(=O)N[C@@H](Cc1c[nH]c2ccccc12)C(N)=O [API-MA, 2-(N-Acetyl-D-tyrosyl-trans-4-hydroxy-L-prolyl-Lasparaginyl-L-threonyl-L-phenylalanyl)-hydrazinocarbonyl-L-leucyl-Nω-methyl-L-arginyl-L-tryptophanamide monoacetate] (Ac-[dY][Hyp]NTF[azaGly]L[Arg(Me)]W-NH2)
Distribution ratio into blood cells ([1]; 0.01 μg/mL API-FB): 2.4% | Distribution ratio into blood cells ([1]; 0.1 μg/mL API-FB): 2.0% | Distribution ratio into blood cells ([1]; 1 μg/mL API-FB): 1.6% | Distribution ratio into blood cells ([1]; 10 μg/mL API-FB): 1.2% | IC50 (CYP3A4): > 7.78 nM | Time by which urinary excretion was essentially complete ([2]; cumulative urinary excretion): ≤ 24 h | AUC(0-inf) [2, 4]: 0.0541 ng·h/mL | CL/F [2, 4]: 310 mL/min | Cmax [2, 4]: 0.0201 ng/mL | half-life ([2]; sc, 0.001 mg, single SC bolus 0.001 mg, mean, read-out: T½ (converted)): 95.4 min | Tmax ([2]; sc, 0.001 mg, single SC bolus 0.001 mg, read-out: Tmax, median (range)): 30 min | AUC(0-inf) [2, 5]: 0.205 ng·h/mL | CL/F [2, 5]: 330 mL/min | Cmax [2, 5]: 0.00617 ng/mL | half-life ([2]; sc, 0.004 mg, single SC bolus 0.004 mg, mean, read-out: T½ (converted)): 115 min | Tmax ([2]; sc, 0.004 mg, single SC bolus 0.004 mg, read-out: Tmax, median (range)): 30 min | AUC(0-inf) [2, 6]: 0.671 ng·h/mL | CL/F [2, 6]: 250 mL/min | Cmax [2, 6]: 0.221 ng/mL | half-life ([2]; sc, 0.01 mg, single SC bolus 0.01 mg, mean, read-out: T½ (converted)): 109 min | Tmax ([2]; sc, 0.01 mg, single SC bolus 0.01 mg, read-out: Tmax, median (range)): 30 min | AUC(0-inf) [2, 7]: 2.61 ng·h/mL | CL/F [2, 7]: 278 mL/min | Cmax [2, 7]: 0.966 ng/mL | half-life ([2]; sc, 0.04 mg, single SC bolus 0.04 mg, mean, read-out: T½ (converted)): 201 min | Tmax ([2]; sc, 0.04 mg, single SC bolus 0.04 mg, read-out: Tmax, median (range)): 30 min | AUC(0-inf) [2, 8]: 5.79 ng·h/mL | CL/F [2, 8]: 298 mL/min | Cmax [2, 8]: 2.42 ng/mL | half-life ([2]; sc, 0.1 mg, single SC bolus 0.1 mg, mean, read-out: T½ (converted)): 215 min | Tmax ([2]; sc, 0.1 mg, single SC bolus 0.1 mg, read-out: Tmax, median (range)): 22.5 min | AUC(0-inf) [2, 9]: 13.3 ng·h/mL | CL/F [2, 9]: 313 mL/min | Cmax [2, 9]: 4.02 ng/mL | Tmax ([2]; sc, 0.25 mg, single 2-hour SC INF 0.25 mg (plasma N = 1), read-out: Tmax, median (range)): 135 min | half-life ([2]; sc, 0.25 mg, single 2-hour SC INF 0.25 mg (plasma N = 1), read-out: T½ (converted)): 226 min | AUC(0-inf) [2, 10]: 18.3 ng·h/mL | CL/F [2, 10]: 228 mL/min | Cmax [2, 10]: 5.9 ng/mL | half-life ([2]; sc, 0.25 mg, single SC bolus 0.25 mg, mean, read-out: T½ (converted)): 245 min | Tmax ([2]; sc, 0.25 mg, single SC bolus 0.25 mg, read-out: Tmax, median (range)): 45 min | AUC(0-inf) [2, 11]: 34.6 ng·h/mL | CL/F [2, 11]: 243 mL/min | Cmax [2, 11]: 8.23 ng/mL | half-life ([2]; sc, 0.5 mg, single 2-hour SC INF 0.5 mg, mean, read-out: T½ (converted)): 241 min | Tmax ([2]; sc, 0.5 mg, single 2-hour SC INF 0.5 mg, read-out: Tmax, median (range)): 150 min | AUC(0-inf) [2, 12]: 30 ng·h/mL | CL/F [2, 12]: 282 mL/min | Cmax [2, 12]: 9.05 ng/mL | half-life ([2]; sc, 0.5 mg, single SC bolus 0.5 mg, mean, read-out: T½ (converted)): 256 min | Tmax ([2]; sc, 0.5 mg, single SC bolus 0.5 mg, read-out: Tmax, median (range)): 30 min | Tmax ([2]; sc, SC bolus, read-out: Median Tmax, range over cohorts): 22.5 to 45 min | half-life ([2]; subcutaneous, 0.5 mg, 0.25 and 0.5 mg, read-out: Mean T1/2 at the highest doses): 226 to 256 min | dose excreted ([2]; sc, 0.001 mg, single SC bolus 0.001 mg, mean, read-out: Fe (urine)): 0% | dose excreted ([2]; sc, 0.004 mg, single SC bolus 0.004 mg, mean, read-out: Fe (urine)): 6.16% | dose excreted ([2]; sc, 0.01 mg, single SC bolus 0.01 mg, mean, read-out: Fe (urine)): 5.4% | dose excreted ([2]; sc, 0.04 mg, single SC bolus 0.04 mg, mean, read-out: Fe (urine)): 4.24% | dose excreted ([2]; sc, 0.1 mg, single SC bolus 0.1 mg, mean, read-out: Fe (urine)): 5.2% | dose excreted ([2]; sc, 0.25 mg, single 2-hour SC INF 0.25 mg, mean, read-out: Fe (urine)): 6.21% | dose excreted ([2]; sc, 0.25 mg, single SC bolus 0.25 mg, mean, read-out: Fe (urine)): 7.1% | dose excreted ([2]; sc, 0.5 mg, single 2-hour SC INF 0.5 mg, mean, read-out: Fe (urine)): 5.22% | dose excreted ([2]; sc, 0.5 mg, single SC bolus 0.5 mg, mean, read-out: Fe (urine)): 6.33% | dose excreted ([2]; sc, 0.004 to 0.5 mg, bolus and infusion, read-out: Mean Fe, range over cohorts): 4.24 to 7.1% | API-MA in urine ([2]; single SC bolus 0.001 mg): No API-MA was detected | Detectability of API-MA in plasma ([3]; 1-month depot 6, 12 or 24 mg, all cases): not detectable by 8 weeks postdose | AUC(0-24) as share of AUC(0-tlqc) ([3]; 1-month depot 6, 12 or 24 mg, burst phase): over 60% | AUC(0-t) ([3]; 6 mg/month, 1-month depot SC 6 mg/month, read-out: AUC (0-24) (converted)): 79.6 ng·h/mL | AUC(0-t) ([3]; 6 mg/month, 1-month depot SC 6 mg/month, read-out: AUC (0-29 d) (converted)): 104 ng·h/mL | AUC(0-t) ([3]; 6 mg/month, 1-month depot SC 6 mg/month, read-out: AUC (0-tlqc) (converted)): 119 ng·h/mL | AUC(0-t) ([3]; 12 mg/month, 1-month depot SC 12 mg/month, read-out: AUC (0-24) (converted)): 119 ng·h/mL | AUC(0-t) ([3]; 12 mg/month, 1-month depot SC 12 mg/month, read-out: AUC (0-29 d) (converted)): 138 ng·h/mL | AUC(0-t) ([3]; 12 mg/month, 1-month depot SC 12 mg/month, read-out: AUC (0-tlqc) (converted)): 158 ng·h/mL | AUC(0-t) ([3]; 24 mg/month, 1-month depot SC 24 mg/month, read-out: AUC (0-24) (converted)): 179 ng·h/mL | AUC(0-t) ([3]; 24 mg/month, 1-month depot SC 24 mg/month, read-out: AUC (0-29 d) (converted)): 209 ng·h/mL | AUC(0-t) ([3]; 24 mg/month, 1-month depot SC 24 mg/month, read-out: AUC (0-tlqc) (converted)): 239 ng·h/mL | Cmax ([3]; 1-month depot SC 6 mg/month): 16.5 ng/mL | Tmax ([3]; 1-month depot SC 6 mg/month): 2 h | Cmax ([3]; 1-month depot SC 12 mg/month): 14.4 ng/mL | Tmax ([3]; 1-month depot SC 12 mg/month): 2.05 h | Cmax ([3]; 1-month depot SC 24 mg/month): 25.5 ng/mL | Tmax ([3]; 1-month depot SC 24 mg/month): 2.05 h | Tlqc ([3]; 1-month depot SC 6 mg/month): 42.9 h | Tlqc ([3]; 1-month depot SC 12 mg/month): 41.5 h | Tlqc ([3]; 1-month depot SC 24 mg/month): 47.2 h | Greatest percent decrease from baseline in PSA, individual patients (serum LH and PSA; month 1, day 29, 6 mg dose group): 8% and 19% | Greatest percent decrease from baseline in PSA, individual patients (serum LH and PSA; month 1, day 29, 12 mg dose group): 25% and 62% | Greatest percent decrease from baseline in PSA, individual patients (serum LH and PSA; month 1, day 29, 24 mg dose group): 88% and 74% and 79% | Greatest reduction in PSA (serum LH and PSA; month 2 day 29, a patient in the 24 mg dose group): 91%
